Assay results from the NIST ThermoML archive (doi:10.1021/je3000469).

Tests used:
[1] = molar heat capacity at constant pressure; wn = mass fraction of the nth substance listed; details: 101 kPa, w1 = 0.561
[2] = wn = mass fraction of the nth substance listed; details: 101 kPa, w1 = 0.561; for viscosity: Capillary tube (Ostwald / Ubbelohde) method; for mass density: Vibrating tube method

O=[N+]([O-])[O-].[Li+] [lithium nitrate] + O
Details	mass density [kg/m3]	molar heat capacity at constant pressure [J/K/mol]	thermal conductivity [W/m/K]	viscosity [mPa·s]
[1], 253.2 K, Crystal of intercomponent compound 1, Small sample (50 mg) DSC	–	48.92	–	–
[1], 263.2 K, Crystal of intercomponent compound 1, Small sample (50 mg) DSC	–	50.15	–	–
[1], 273.2 K, Crystal of intercomponent compound 1, Small sample (50 mg) DSC	–	51.38	–	–
[1], 283.2 K, Crystal of intercomponent compound 1, Small sample (50 mg) DSC	–	52.61	–	–
[1], 288.2 K, Crystal of intercomponent compound 1, Small sample (50 mg) DSC	–	53.22	–	–
[2], 253.2 K, Crystal of intercomponent compound 1, Hot disk method	–	–	0.76	–
[2], 263.2 K, Crystal of intercomponent compound 1, Hot disk method	–	–	0.74	–
[2], 273.2 K, Crystal of intercomponent compound 1, Hot disk method	–	–	0.77	–
[2], 283.2 K, Crystal of intercomponent compound 1, Hot disk method	–	–	0.76	–
[2], 293.2 K, Crystal of intercomponent compound 1, Hot disk method	–	–	0.75	–
[2], 294.2 K, Crystal of intercomponent compound 1, Hot disk method	–	–	0.82	–
[2], 308.2 K, Liquid	1425	–	–	5.34
[2], 313.2 K, Liquid	1420	–	–	4.8
[2], 318.2 K, Liquid	1413	–	–	4.37
[2], 323.2 K, Liquid	1408	–	–	3.96
[2], 328.2 K, Liquid	1402	–	–	3.6
[2], 333.2 K, Liquid	1395	–	–	3.31
[2], 338.2 K, Liquid	1390	–	–	3.06
[2], 343.2 K, Liquid	1384	–	–	2.84
[2], 348.2 K, Liquid	1378	–	–	2.63
[2], 353.2 K, Liquid	1372	–	–	2.46

Liquid
Details	molar heat capacity at constant pressure [J/K/mol]	thermal conductivity [W/m/K]
[1], 308.2 K, hot wire method	89.52	–
[1], 313.2 K, Small sample (50 mg) DSC	84.91	–
[1], 313.2 K, hot wire method	89.52	–
[1], 318.2 K, hot wire method	90.45	–
[1], 323.2 K, Small sample (50 mg) DSC	85.22	–
[1], 323.2 K, hot wire method	90.45	–
[1], 328.2 K, hot wire method	91.06	–
[1], 333.2 K, Small sample (50 mg) DSC	84.91	–
[1], 333.2 K, hot wire method	91.68	–
[1], 338.2 K, hot wire method	91.99	–
[1], 343.2 K, Small sample (50 mg) DSC	85.22	–
[1], 343.2 K, hot wire method	92.29	–
[1], 348.2 K, hot wire method	93.22	–
[1], 353.2 K, Small sample (50 mg) DSC	84.91	–
[1], 353.2 K, hot wire method	94.45	–
[2], 308.2 K, hot wire	–	0.584
[2], 313.2 K, hot wire	–	0.581
[2], 318.2 K, hot wire	–	0.587
[2], 323.2 K, hot wire	–	0.583
[2], 328.2 K, hot wire	–	0.585
[2], 333.2 K, hot wire	–	0.588
[2], 338.2 K, hot wire	–	0.588
[2], 343.2 K, hot wire	–	0.588
[2], 348.2 K, hot wire	–	0.595
[2], 353.2 K, hot wire	–	0.611
